# Results reported in article PMC12785564, “Targeting Melanin Production: The Safety of Tyrosinase Inhibition” (International Journal of Molecular Sciences, 2025).
# Columns and labels:
# 3T3 [1] = tested on: 3T3; design: method as in PMID 15598357; conditions: same assay; read-out: IC50 for cytotoxicity in 3T3 Neutral Red Uptake (NRU); cited from earlier work
# [2] = target: recombinant human tyrosinase (hTyr); design: method as in PMID 29427586; conditions: read-out: half-maximal inhibitory concentration (IC50) for hTyr; cited from earlier work
# hyperpigmentation = conditions: cited from earlier work
# COX2 = target: T1, COX2 (Homo sapiens, UniProt P35354); experiment: SAFETYscan COX2 enzymatic inhibition; type: biochemical; conditions: 0.1 µM to 10 µM tested
# T1 construct: purchased Eurofins Discovery (San Diego, CA, USA), SAFETYscan E/IC50 SELECT service
# T1 sequence (P35354 18-604): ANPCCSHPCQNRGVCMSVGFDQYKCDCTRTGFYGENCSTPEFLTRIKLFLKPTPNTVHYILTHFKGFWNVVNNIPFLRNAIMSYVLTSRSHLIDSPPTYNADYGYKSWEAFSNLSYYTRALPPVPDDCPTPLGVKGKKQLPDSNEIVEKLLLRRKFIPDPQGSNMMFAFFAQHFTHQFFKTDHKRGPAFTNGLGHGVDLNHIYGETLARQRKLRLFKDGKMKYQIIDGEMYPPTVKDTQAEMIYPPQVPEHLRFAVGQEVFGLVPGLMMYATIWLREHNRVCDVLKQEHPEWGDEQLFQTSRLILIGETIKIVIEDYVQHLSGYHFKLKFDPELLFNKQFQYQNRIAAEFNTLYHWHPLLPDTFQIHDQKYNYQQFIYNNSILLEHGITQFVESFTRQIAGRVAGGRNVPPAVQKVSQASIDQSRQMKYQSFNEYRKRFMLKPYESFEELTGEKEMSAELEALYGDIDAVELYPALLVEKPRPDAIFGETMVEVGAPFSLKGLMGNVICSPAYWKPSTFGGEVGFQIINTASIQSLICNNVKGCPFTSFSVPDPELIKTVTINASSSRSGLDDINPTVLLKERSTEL
# Experimental: (§1) Pharmacological profiling was performed with the SAFETYscan^TM E/IC50 SELECT service provided by Eurofins Discovery (San Diego, CA, USA), based on the findings of in vitro assays used in pharmaceutical companies. Increasing concentrations of Thiamidol (0.1 µM to 10 µM) were tested against various ion channels, and a total of seventy-eight assays performed utilizing various output reads, including GPCR cAMP modulation, calcium mobilization, nuclear hormone receptor interactions, KINOMEscan binding, ion channel interactions, transporter interactions and enzymatic reactions. Methods are available online via Eurofins Discovery in the format of a sample report.
# [3] = biotransformation in fresh pig skin; type: in vitro ADME; conditions: after 24 h, irrespective of test sample concentration (0.3% and 1.0%)
# Experimental: (§2) Metabolism in skin is evident with approx. 50% of Thiamidol degraded in a pig skin assay compared to controls after 24 h, irrespective of test sample concentration. A semiquantitative analysis of the metabolites in the porcine in vitro model is shown in Figure 2, with the primary reactions due to direct glucuronic acid conjugation (phase II metabolism) at one of the free hydroxyl groups. Further degradation products could be attributed to a combination of phase I and phase II metabolism, i.e., hydroxylation and methylation.
# (§3) A biotransformation study analyzed the degradation of Thiamidol in fresh pig skin at room temperature after 24 h exposure. A solution of 0.3% and 1.0% was prepared in 2-proanol. From this, about 25 µL of test solution was placed in three vials with 2.5 g of skin, as well as controls without skin or containing skin only. All samples were mixed with 0.5 mL of water, shaken and left open. Determination of the content of the test sample was carried out in parallel. After 24 h incubation, the samples were mixed with 2 mL of acetonitrile, placed in an ultrasonic bath for 10 min (resulting in a stop to any metabolic reactions) and extracted with 50% methanol, then shaken well and placed in an ultrasonic bath and filtered. Metabolites were then identified using liquid chromatography coupled with mass spectroscopy. […]
# COX1 = target: T2, COX1 (Homo sapiens, UniProt P23219); experiment: SAFETYscan COX1 enzymatic inhibition; type: biochemical; conditions: 0.1 µM to 10 µM tested
# T2 construct: purchased Eurofins Discovery (San Diego, CA, USA), SAFETYscan E/IC50 SELECT service
# Experimental: as §1
# [4] = target: T3, norepinephrine transport (NET) (Homo sapiens, UniProt P23975); experiment: SAFETYscan NET assay; type: biochemical; conditions: 0.1 µM to 10 µM tested
# T3 construct: purchased Eurofins Discovery (San Diego, CA, USA), SAFETYscan E/IC50 SELECT service
# Experimental: as §1
# dopamine transport (DAT) = target: T4, dopamine transport (DAT) (Homo sapiens, UniProt Q01959); experiment: SAFETYscan DAT assay; type: biochemical; conditions: 0.1 µM to 10 µM tested
# T4 construct: purchased Eurofins Discovery (San Diego, CA, USA), SAFETYscan E/IC50 SELECT service
# Experimental: as §1
# [5] = tested on: reconstructed human epidermis; experiment: in vitro skin corrosion / skin irritation, OECD TG 431 and 439 (human skin model, reconstructed human epidermis); type: cell-based; conditions: non-animal OECD methods
# From the text: These are amongst the first and most established non-animal methods adopted by the Organisation for Economic Co-operation and Development. Clinical skin tolerability studies for the final formulation containing Thiamidol provide confirmatory evidence but also information about consumer sensory experiences.
# (§4) Thiamidol used for testing was sourced from Alzchem Group AG (Trostberg, Germany) with a purity of 99% w/w. For standard toxicological endpoints of skin irritation, phototoxicity and genotoxicity, in vitro studies were performed following equivalent methods to those described in the corresponding OECD Testing Guidelines: OECD Test Guideline No. 431 (In Vitro Skin Corrosion: Human Skin Model Test); OECD Test Guideline No. 439 (In Vitro Skin Irritation: Reconstructed Human Epidermis Test Method); OECD Test Guideline No. 432 (In Vitro 3T3 NRU Phototoxicity Test); OECD Test Guideline No. 471 (Bacterial Reverse Mutation Assay); OECD Test Guideline No. 487 (in vitro Mammalian Cell Micronucleus Test); and OECD Test Guideline No. 476 (in vitro Mammalian Cell Gene Mutation Test).
# [6] = substrate depletion in human hepatocytes; type: in vitro ADME; conditions: 5 μM, 37 °C, over 240 min
# Experimental: as §2
# as §3, with “filtered.” for “filtered. Metabolites were then identified using liquid chromatography coupled with mass spectroscopy.”
# The in vitro intrinsic clearances and half-life readouts were expressed as µL/min/10^6 cells and in minutes, respectively. […]
# [7] = 3T3 Neutral Red Uptake (NRU) cytotoxicity / phototoxicity, OECD TG 432; type: cell-based; conditions: mouse, 3T3 cells; absence of UV light; Beiersdorf internal report; read-out: NR50 (IC50 for neural uptake), cytotoxicity in 3T3 NRU
# From the text: (§5) From established in vitro guideline studies, potential genotoxicity and toxic effects at a cellular level can be elucidated. This can be complemented with a weight-of-evidence of any observed indicators of cytotoxicity in multiple assays. For instance, the 3T3 Neutral Red Uptake (NRU) assay, which was initially developed for phototoxicity, can provide an indication for local toxicity in the absence of UV light.
# as §4
# 3T3 [8] = experiment: as above; type: cell-based; conditions: presence of UV light
# From the text: as §5, §4
# [9] = target: T5, monoamine oxidase A (MOAO) (Homo sapiens, UniProt P21397); experiment: SAFETYscan monoamine oxidase A enzymatic inhibition; type: biochemical; conditions: 0.1 µM to 10 µM tested
# T5 construct: purchased Eurofins Discovery (San Diego, CA, USA), SAFETYscan E/IC50 SELECT service
# T5 sequence (P21397 1-527): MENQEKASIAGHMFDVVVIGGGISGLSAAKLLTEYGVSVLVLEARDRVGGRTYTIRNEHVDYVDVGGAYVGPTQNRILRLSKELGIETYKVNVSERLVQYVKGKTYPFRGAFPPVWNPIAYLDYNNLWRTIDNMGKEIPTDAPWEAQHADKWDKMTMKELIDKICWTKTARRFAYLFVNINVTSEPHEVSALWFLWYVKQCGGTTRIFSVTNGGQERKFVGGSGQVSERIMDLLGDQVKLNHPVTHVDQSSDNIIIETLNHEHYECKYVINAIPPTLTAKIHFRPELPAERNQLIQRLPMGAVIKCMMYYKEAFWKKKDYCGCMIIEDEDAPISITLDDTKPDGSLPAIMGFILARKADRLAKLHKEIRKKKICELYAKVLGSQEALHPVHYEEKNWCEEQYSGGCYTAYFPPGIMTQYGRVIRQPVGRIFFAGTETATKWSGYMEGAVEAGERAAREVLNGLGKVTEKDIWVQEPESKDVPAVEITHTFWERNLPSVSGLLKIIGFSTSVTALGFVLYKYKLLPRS
# Experimental: as §1
# T4 sequence (Q01959 whole entry): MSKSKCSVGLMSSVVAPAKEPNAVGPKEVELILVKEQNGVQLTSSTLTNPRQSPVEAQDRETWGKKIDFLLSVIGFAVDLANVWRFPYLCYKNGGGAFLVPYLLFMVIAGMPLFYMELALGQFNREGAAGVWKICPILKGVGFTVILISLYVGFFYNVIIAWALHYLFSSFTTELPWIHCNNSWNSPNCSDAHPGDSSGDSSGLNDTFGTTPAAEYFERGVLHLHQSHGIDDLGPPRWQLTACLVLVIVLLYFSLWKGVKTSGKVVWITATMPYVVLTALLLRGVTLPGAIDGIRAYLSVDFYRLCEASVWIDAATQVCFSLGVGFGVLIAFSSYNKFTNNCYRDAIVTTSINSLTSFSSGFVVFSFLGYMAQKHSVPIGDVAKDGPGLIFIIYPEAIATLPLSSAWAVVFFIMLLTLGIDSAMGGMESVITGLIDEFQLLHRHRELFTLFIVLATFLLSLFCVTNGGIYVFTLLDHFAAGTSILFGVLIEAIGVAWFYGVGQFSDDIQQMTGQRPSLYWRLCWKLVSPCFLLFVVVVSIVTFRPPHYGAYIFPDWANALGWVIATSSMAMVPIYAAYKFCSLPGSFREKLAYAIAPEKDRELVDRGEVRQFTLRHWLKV
# T2 sequence (P23219 24-599): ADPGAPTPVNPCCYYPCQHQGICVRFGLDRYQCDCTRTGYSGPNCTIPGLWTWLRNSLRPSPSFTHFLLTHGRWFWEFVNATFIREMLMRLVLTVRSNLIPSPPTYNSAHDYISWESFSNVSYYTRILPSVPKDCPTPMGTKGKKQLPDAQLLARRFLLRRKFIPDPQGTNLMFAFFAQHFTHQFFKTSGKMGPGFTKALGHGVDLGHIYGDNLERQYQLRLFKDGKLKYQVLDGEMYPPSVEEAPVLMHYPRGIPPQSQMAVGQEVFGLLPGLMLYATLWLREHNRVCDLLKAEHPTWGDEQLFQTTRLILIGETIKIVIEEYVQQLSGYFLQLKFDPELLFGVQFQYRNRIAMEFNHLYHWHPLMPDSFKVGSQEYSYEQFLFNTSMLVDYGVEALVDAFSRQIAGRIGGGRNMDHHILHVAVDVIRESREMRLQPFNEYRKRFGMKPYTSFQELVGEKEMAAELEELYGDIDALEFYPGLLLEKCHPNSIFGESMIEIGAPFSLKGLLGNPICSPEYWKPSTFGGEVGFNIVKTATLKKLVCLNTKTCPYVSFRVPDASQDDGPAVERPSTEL
# T3 sequence (P23975 whole entry): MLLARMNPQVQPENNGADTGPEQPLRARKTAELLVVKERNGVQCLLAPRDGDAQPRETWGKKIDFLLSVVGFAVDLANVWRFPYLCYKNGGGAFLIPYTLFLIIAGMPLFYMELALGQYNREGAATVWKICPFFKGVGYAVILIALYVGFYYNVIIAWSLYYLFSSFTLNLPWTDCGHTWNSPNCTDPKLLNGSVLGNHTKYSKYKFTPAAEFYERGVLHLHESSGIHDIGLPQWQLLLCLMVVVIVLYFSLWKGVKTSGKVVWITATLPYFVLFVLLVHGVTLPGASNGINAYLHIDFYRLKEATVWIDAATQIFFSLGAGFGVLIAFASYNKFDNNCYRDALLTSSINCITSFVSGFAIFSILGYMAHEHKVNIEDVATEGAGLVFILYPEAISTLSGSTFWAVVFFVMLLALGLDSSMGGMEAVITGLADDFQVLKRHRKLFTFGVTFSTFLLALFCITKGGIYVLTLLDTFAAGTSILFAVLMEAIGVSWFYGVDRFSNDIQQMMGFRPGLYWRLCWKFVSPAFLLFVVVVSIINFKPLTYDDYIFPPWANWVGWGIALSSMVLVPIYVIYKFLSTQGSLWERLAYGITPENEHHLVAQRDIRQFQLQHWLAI
smiles,measurement,setting,value
Oc1ccc(O)cc1 [hydroquinone],IC50,3T3 [1],12900 nM
"CC(C)C(=O)Nc1nc(-c2ccc(O)cc2O)cs1 [Thiamidol, isobutylamido thiazolyl resorcinol]",IC50,[2],1100 nM
same,adverse effects in clinical studies,"hyperpigmentation; Thiamidol formulations, diverse skin- and phototypes",no significant adverse effects
same,effect on hyperpigmentation in clinical studies,"hyperpigmentation; UV-induced solar lentigines, melasma, acne- and laser-induced PIH",effectively reduces hyperpigmentation
same,IC50,COX2,> 1000 nM
same,degraded in pig skin assay compared to controls,[3],approx. 50%
same,IC50,COX1,> 1000 nM
same,IC50,[4],360 nM
same,IC50,dopamine transport (DAT),> 1000 nM
same,skin corrosion and irritation category,[5],not categorized as corrosive or irritating to the skin
same,in vitro half-life in human hepatocytes,[6],in the minute range
same,IC50,[7],136000 nM
same,phototoxicity: distinction of NR50 in the presence of UV light,3T3 [8],no biologically significant distinction
same,IC50,[9],> 1000 nM
"Oc1cccc(O)c1 [resorcinol, 1,3-benzenediol]",IC50,3T3 [1],17300 nM
Oc1ccccc1O [catechol],IC50,3T3 [1],100 nM
